In the supplement of paper PMC10307832:

Tests used:
Experiment in all cases: relative viability (nuclei count vs DMSO), 5 days (fraction); higher = more cells survive
[1] = compound: CCC1=CN=CN=C1N2CCN(CC2)CC3=NC4=C(N3)C=C(C=C4)C(F)(F)F + Cc1cc(Nc2cc(N3CCN(C)CC3)nc(Sc3ccc(NC(=O)C4CC4)cc3)n2)n[nH]1 [Tozasertib] (partner 0.1 µM)
Procedure, shortened: (§1)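 Dosing by pin tool came one day after lung cancer cell lines were seeded in 1536-well plates, using either one drug or a fixed anchor-drug dose plus five library-drug doses (not always all listed) in √10 steps. After 5 days, nuclei were counted on 4× images. Relative viability is treated-well nuclei count divided by vehicle-well nuclei count, and values are medians of duplicate plates.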

Mirin + Foretinib = compound: N=C1NC(=O)/C(=C/c2ccc(O)cc2)S1 [Mirin] + COc1cc2c(Oc3ccc(NC(=O)C4(C(=O)Nc5ccc(F)cc5)CC4)cc3F)ccnc2cc1OCCCN1CCOCC1 [Foretinib] (partner 0.25 µM)
Procedure, shortened: as §1

[2] = compound: CCC1=CN=CN=C1N2CCN(CC2)CC3=NC4=C(N3)C=C(C=C4)C(F)(F)F + CC(=O)Nc1cccc(-n2c(=O)n(C3CC3)c(=O)c3c(Nc4ccc(I)cc4F)n(C)c(=O)c(C)c32)c1 [Trametinib] (partner 0.02 µM)
Procedure, shortened: as §1

[3] = compound: CCC1=CN=CN=C1N2CCN(CC2)CC3=NC4=C(N3)C=C(C=C4)C(F)(F)F + COc1cc2c(Oc3ccc(NC(=O)C4(C(=O)Nc5ccc(F)cc5)CC4)cc3F)ccnc2cc1OCCCN1CCOCC1 [Foretinib] (partner 0.25 µM)
Procedure, shortened: as §1

| Cell Line | relative viability ([1]; first compound 0.04 µM) | relative viability ([1]; first compound 0.1265 µM) | relative viability ([1]; first compound 0.4 µM) | relative viability ([1]; first compound 1.265 µM) | relative viability ([1]; first compound 4 µM) | relative viability (Mirin + Foretinib; first compound 0.25 µM) | relative viability (Mirin + Foretinib; first compound 0.7906 µM) | relative viability (Mirin + Foretinib; first compound 2.5 µM) | relative viability (Mirin + Foretinib; first compound 7.906 µM) | relative viability (Mirin + Foretinib; first compound 25 µM) | relative viability ([2]; first compound 0.04 µM) | relative viability ([2]; first compound 0.1265 µM) | relative viability ([2]; first compound 0.4 µM) | relative viability ([2]; first compound 1.265 µM) | relative viability ([2]; first compound 4 µM) | relative viability ([3]; first compound 0.04 µM) | relative viability ([3]; first compound 0.1265 µM) | relative viability ([3]; first compound 0.4 µM) | relative viability ([3]; first compound 1.265 µM) | relative viability ([3]; first compound 4 µM) |
| --- | --- | --- | --- | --- | --- | --- | --- | --- | --- | --- | --- | --- | --- | --- | --- | --- | --- | --- | --- | --- |
| LCLC-97TM1 | 0.209 | 0.196 | 0.234 | 0.207 | 0.205 | 0.762 | 0.848 | 0.89 | 0.991 | 0.703 | 0.195 | 0.164 | 0.183 | 0.238 | 0.2 | 0.897 | 0.898 | 0.895 | 0.838 | 0.888 |
| COR-L23 | 0.219 | 0.207 | 0.201 | 0.157 | 0.183 | 1.07 | 1.14 | 0.879 | 1.01 | 1.05 | 0.569 | 0.682 | 0.524 | 0.47 | 0.583 | 0.925 | 0.861 | 0.986 | 0.918 | 0.897 |
| NCI-H1355 | 0.566 | 0.513 | 0.495 | 0.413 | 0.421 | 0.67 | 1 | 0.967 | 0.971 | 0.918 | 0.435 | 0.395 | 0.426 | 0.331 | 0.451 | 1 | 0.875 | 0.85 | 0.946 | 0.793 |
| NCI-H1666 | 0.556 | 0.723 | 0.575 | 0.569 | 0.635 | 0.963 | 1.03 | 1.04 | 0.941 | 0.836 | 0.892 | 0.825 | 0.877 | 0.879 | 0.792 | 0.88 | 0.923 | 0.97 | 0.882 | 0.889 |
| EPLC-272H | 0.257 | 0.225 | 0.262 | 0.327 | 0.332 | 0.744 |  | 0.602 | 0.519 | 0.306 | 0.289 | 0.26 | 0.32 | 0.284 | 0.325 | 0.787 | 0.787 | 0.688 | 0.653 | 0.639 |
| ChaGo-K-1 | 0.206 | 0.256 | 0.233 | 0.195 | 0.224 | 0.963 | 0.921 | 0.965 | 0.841 | 0.652 | 0.93 | 0.894 | 0.821 | 0.869 | 0.859 | 1.02 | 0.992 | 0.794 | 0.814 | 0.891 |
| NCI-H1651 | 0.82 | 0.728 | 0.687 | 0.583 | 0.714 | 0.814 | 0.845 | 0.773 | 0.678 | 0.69 | 0.884 | 0.855 | 0.846 | 0.791 | 0.797 | 0.934 | 0.704 | 0.861 | 0.709 | 0.667 |
